Laboratory results: ChEMBL document CHEMBL5303766, “Data for DCP probe FHT-2344” (2022)

How the values were obtained:
[1] = target: T1, Serine/threonine-protein kinase haspin (Homo sapiens) (UniProt Q8TF76); assay: GSG2 SGC Tm panel (DSF); details: for ΔTm: Compound concentration 10.0 uM
T1 sequence (whole entry): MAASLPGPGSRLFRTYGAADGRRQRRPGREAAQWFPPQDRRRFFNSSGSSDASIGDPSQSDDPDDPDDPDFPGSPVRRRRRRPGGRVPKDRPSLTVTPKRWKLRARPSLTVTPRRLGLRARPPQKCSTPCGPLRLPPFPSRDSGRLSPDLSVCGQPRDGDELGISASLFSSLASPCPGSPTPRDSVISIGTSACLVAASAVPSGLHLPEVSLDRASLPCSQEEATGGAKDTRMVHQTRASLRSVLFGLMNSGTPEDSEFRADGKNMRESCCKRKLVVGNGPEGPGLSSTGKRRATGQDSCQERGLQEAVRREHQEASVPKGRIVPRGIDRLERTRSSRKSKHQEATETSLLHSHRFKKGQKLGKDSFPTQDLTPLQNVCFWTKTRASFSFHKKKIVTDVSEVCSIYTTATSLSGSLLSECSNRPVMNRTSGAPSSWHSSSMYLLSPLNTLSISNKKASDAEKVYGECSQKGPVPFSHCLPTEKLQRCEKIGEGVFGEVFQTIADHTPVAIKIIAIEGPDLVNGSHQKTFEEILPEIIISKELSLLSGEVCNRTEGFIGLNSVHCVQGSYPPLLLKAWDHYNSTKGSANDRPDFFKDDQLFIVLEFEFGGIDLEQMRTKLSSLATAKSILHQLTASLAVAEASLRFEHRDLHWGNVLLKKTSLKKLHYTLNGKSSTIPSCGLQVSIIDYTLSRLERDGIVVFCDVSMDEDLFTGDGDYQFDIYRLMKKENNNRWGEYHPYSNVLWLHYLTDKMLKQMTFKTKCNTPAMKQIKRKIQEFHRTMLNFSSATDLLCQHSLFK

[2] = target: 5-hydroxytryptamine receptor 3A (Homo sapiens) (UniProt P46098); details: Compound concentration 10.0 uM
5-hydroxytryptamine receptor 3A (Homo sapiens), sequence (P46098 whole entry): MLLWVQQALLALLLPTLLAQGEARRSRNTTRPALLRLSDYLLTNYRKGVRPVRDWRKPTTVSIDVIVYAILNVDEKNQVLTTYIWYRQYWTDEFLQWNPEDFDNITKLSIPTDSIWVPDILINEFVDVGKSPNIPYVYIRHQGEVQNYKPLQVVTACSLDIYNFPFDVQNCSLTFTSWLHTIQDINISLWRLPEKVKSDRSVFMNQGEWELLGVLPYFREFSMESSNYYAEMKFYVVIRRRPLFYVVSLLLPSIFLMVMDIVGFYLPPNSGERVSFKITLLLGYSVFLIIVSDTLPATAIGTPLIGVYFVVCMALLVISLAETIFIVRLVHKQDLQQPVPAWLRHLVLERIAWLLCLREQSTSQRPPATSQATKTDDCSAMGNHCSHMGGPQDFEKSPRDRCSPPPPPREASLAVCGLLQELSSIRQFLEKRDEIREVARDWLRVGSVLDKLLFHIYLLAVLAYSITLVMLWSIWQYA

[3] = target: T2, Cytoplasmic tyrosine-protein kinase BMX (Homo sapiens) (UniProt P51813); assay: BMX SGC Tm panel (DSF); details: for ΔTm: Compound concentration 10.0 uM
T2 sequence (whole entry): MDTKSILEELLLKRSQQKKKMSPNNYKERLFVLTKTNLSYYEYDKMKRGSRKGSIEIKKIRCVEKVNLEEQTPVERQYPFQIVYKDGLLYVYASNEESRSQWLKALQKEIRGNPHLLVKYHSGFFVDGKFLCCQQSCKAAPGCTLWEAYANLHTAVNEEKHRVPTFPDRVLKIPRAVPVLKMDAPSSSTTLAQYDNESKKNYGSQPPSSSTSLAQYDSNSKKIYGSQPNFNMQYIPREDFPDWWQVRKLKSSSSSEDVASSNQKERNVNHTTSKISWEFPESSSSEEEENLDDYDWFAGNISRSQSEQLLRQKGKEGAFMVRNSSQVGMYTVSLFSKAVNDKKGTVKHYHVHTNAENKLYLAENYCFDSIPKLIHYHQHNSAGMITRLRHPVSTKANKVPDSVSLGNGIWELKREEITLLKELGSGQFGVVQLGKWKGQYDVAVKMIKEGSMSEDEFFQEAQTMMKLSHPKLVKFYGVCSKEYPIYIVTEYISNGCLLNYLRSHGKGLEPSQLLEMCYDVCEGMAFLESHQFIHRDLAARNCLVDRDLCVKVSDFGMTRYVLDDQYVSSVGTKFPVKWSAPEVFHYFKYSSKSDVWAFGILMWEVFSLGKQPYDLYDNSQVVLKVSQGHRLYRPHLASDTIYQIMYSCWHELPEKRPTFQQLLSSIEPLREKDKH

[4] = target: T3, Tyrosine-protein kinase Mer (Homo sapiens) (UniProt Q12866); assay: MERTK SGC Tm panel (DSF); details: for ΔTm: Compound concentration 10.0 uM
T3 sequence (whole entry): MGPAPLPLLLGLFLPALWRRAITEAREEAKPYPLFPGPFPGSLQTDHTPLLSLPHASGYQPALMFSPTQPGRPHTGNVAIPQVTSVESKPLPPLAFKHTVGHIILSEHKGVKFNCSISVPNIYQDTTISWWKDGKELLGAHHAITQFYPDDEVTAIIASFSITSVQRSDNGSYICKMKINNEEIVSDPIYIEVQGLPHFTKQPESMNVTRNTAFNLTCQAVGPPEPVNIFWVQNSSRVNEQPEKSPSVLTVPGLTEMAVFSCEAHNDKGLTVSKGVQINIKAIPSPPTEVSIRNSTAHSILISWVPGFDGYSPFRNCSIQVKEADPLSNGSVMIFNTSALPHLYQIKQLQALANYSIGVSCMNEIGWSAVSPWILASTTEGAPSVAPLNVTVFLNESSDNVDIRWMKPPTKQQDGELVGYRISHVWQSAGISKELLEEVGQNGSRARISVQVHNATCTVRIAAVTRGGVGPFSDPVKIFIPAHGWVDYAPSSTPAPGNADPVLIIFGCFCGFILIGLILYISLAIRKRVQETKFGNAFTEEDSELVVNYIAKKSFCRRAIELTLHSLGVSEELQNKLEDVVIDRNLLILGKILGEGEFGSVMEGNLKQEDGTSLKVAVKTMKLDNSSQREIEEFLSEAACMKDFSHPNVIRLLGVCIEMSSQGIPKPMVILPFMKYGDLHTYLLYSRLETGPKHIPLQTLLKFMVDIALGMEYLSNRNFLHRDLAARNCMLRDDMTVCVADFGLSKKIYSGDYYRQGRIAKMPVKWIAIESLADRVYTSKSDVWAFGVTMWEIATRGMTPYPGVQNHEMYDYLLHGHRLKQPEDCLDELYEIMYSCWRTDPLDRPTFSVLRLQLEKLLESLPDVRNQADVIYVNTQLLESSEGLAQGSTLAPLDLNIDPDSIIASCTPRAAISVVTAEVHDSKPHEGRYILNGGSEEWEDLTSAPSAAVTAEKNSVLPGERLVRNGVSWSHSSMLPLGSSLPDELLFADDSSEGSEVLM

[5] = target: T4, Serine/threonine-protein kinase 4 (Homo sapiens) (UniProt Q13043); assay: STK4 SGC Tm panel (DSF); details: for ΔTm: Compound concentration 10.0 uM
T4 sequence (whole entry): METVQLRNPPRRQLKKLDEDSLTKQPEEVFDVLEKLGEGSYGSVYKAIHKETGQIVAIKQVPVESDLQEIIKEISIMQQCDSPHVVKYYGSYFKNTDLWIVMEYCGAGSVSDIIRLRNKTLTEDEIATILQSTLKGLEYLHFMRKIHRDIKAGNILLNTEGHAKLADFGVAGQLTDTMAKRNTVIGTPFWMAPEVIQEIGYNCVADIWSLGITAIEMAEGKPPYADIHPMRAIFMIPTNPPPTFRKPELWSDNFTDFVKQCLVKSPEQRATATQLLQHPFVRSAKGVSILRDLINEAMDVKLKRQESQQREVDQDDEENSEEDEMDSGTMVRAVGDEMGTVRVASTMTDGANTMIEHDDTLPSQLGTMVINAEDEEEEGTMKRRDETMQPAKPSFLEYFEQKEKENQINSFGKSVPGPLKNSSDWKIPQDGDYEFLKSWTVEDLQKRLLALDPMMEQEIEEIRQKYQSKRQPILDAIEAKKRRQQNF

Compound | delta Tm Staurosporine positive control [1] | ΔTm [1] | inhibition [2] [%] | delta Tm Staurosporine positive control [3] | ΔTm [3] | delta Tm Staurosporine positive control [4] | ΔTm [4] | delta Tm Staurosporine positive control [5] | ΔTm [5]
C[C@H](NC(=O)c1cn(C2(C#N)CC2)cn1)C(=O)Nc1nc(-c2cccc(-c3ccn(C)n3)c2)cs1 | 7.11 | -1.11 | 3.44 | 7.18 | 0.254 | 6.35 | 0.284 | 14.2 | 0
COC[C@H](NC(=O)c1ccn(S(C)(=O)=O)c1)C(=O)Nc1nc(-c2cccc(-c3ccn(C)n3)c2)cs1 | 7.11 | -0.207 | 5.62 | 7.18 | 0.191 | 6.35 | 0.54 | 14.2 | 0
